The text below walks through data of US20250026719A1, “NOVEL COMPOUNDS AS INHIBITORS OF PCSK9” (SHENGKE PHARMACEUTICALS (JIANGSU) LTD., priority 2021, published 2025).

One series deals with PCSK9 mRNA. Description: RT-Q-PCR analysis of PCSK9 mRNA in HepG2 cells. In kind it is cell-based. Conditions: Homo sapiens, 24 h, normalized to GAPDH, read-out: HepG2 Q-PCR PCSK9 mRNA level decrease (10 μM). As for the experimental part:
HepG2 cells (ATCC, Cat.:HB-8065) were maintained in Growth medium—Eagle's Minimum Essential Medium (Corning, 10-010-CVR), 10% FBS (Gibco, 10099-141), Penicillin (100 units/mL), Streptomycin (100 μg/mL). HepG2 cells were incubated at 37° C., 5% CO2.
Cells were cultured in growth medium as described above and treated with the vehicle, Berberine or test compound for 24 h. The RNA was extracted using the Total RNA mini Kit (Tiangen, Beijing, China) according to the manufacturer's instructions. Reverse transcription was carried out using the High-Capacity cDNA reverse transcription kit (Thermo Fisher Scientific). Quantitative real-time PCR was performed using a reaction mixture containing cDNA, specific primers [PCSK9, 5′-[…]-3′ (forward) and 5′-[…]-3′ (reverse); GAPDH, 5′-[…]-3′ (forward) and 5′-[…]-3′ (reverse)] and Maxima SYBR Green/ROX qPCR Master Mix(Thermo Fisher Scientific). PCR amplification was carried out in a Real-Time PCR System. The real-time PCR conditions were 37° C. 10 min; 95° C. 10 min; 95° C. 15 s, 60° C. 30 s, 72° C. 30 s, 40 cycle. The amount of mRNA was normalized to the GAPDH level in the same samples.

The subject of another series is PCSK9. Description: PCSK9 ELISA of HepG2 culture medium. The format is cell-based. Conditions: 24 hr. As for the experimental part:
(§1) HepG2 cells (ATCC, Cat.:HB-8065) were maintained in Growth medium—Eagle's Minimum Essential Medium (Corning, 10-010-CVR), 10% FBS (Gibco, 10099-141), Penicillin (100 units/mL), Streptomycin (100 μg/mL). HepG2 cells were incubated at 37° C., 5% CO2. HepG2 cells were plated in flat bottom 96-well plates (Corning, 3599) at 40,000 cells/well in 100 μL of growth media. After an overnight incubation, the culture media were changed to serum-free OptiMEM media(Gibco, 31985-062), 90 μL/well. Vehicle, PF-06446846 hydrochloride, berberine, or test compound was added to the culture media, 10 μL/well. After 24 hr medium was harvested, and 10 μL of the medium were used for the PCSK9 ELISA(R&D Systems, SPC900).
Background: ELISA stands for enzyme-linked immunosorbent assay.

Series [1] can be described thus: Metabolic stability in rat liver microsomes. The format is in vitro ADME. Conditions: rat liver microsomes 0.5 mg/mL, 37° C., read-out: Metabolic stability T1/2 (minute) Rat. Here is the method: (§2) Metabolic Stability of Test Compounds in Incubation with Human, and Rat Liver Microsomes Study Details: • Test concentration: 1 μM; • Reference compound: Ketanserin; • Test systems: human, and rat liver microsomes (from Corning or Xenotech) with final liver microsomal protein concentration of 0.5 mg/mL; • Incubation condition: 0, 5, 15, 30, and 45 min at 37° C.; • Sample size: Duplicates (n=2); • Bioanalytical method: LC-MS/MS;
(§3) [formula] [formula] [formula] • where QH is the hepatic blood flow (mL/min/kg), fub is the fraction of unbound drug in plasma which is assumed to be 1, Clint is the in vitro intrinsic clearance.
A general note: Liver microsomes are a subcellular fraction often used to study metabolism.

A further series concerns HepG2 cells. Nature of the series: HepG2 cell viability assay (CellTiter-Glo, cellular ATP). The format is cell-based. Conditions: 24 hr, serum-free OptiMEM. As for the experimental part: as §1, with “black clear” for “flat”, “3063)” for “3599)”, “media (Gibco,” for “media(Gibco,”, “cellular ATP levels” for “medium was harvested, and 10 μL of the medium”, “measured using CellTiter-Glo® 2.0 Assay (Promega, G9242).” for “used for the PCSK9 ELISA(R&D Systems, SPC900).”
For orientation: ATP-based viability assays read luminescence as a measure of living cells.

Series [2] can be described thus: Metabolic stability in human liver microsomes. The format is in vitro ADME. Particulars: human liver microsomes 0.5 mg/mL, 37° C., read-out: Metabolic stability T1/2 (minute) Human. As for the experimental part: as §2, §3

As for `CC(C)NC(=O)CN(CC(=O)Nc1ccc(Oc2ccc(F)c(F)c2)cc1)C(=O)c1ccc(C(F)(F)F)[nH]1` [Compound 201-283], the inhibition at 10 µM in the series on PCSK9 mRNA is 77%. Also, the “HepG2 PCSK9 ELISA (10 μM) % inhibition” value in the series with PCSK9 was 100%. The half-life at 1 μM turned out to be 49.6 min in series [1] and 77.8 min in series [2]. Further, the “HepG2 Survival assay (10 μM)” value in the series with HepG2 cells is 97%.
For the compound `CC(C)NC(=O)CN(CC(=O)Nc1ccc(Oc2ccc(C(F)(F)F)cc2)cc1)C(=O)c1ccc(C(F)(F)F)[nH]1` [Compound 201-281], the inhibition at 10 µM with PCSK9 mRNA came out at 70%. The “HepG2 PCSK9 ELISA (10 μM) % inhibition” value in the series with PCSK9 worked out at 100%. In addition, the half-life at 1 μM in series [1] was 428 min; in series [2], 159 min. In the series on HepG2 cells, the “HepG2 Survival assay (10 μM)” value came out at 98%.
In the same order, the values of `CC(C)NC(=O)CN(CC(=O)Nc1ccc(Oc2cc(F)c(F)c(F)c2)cc1)C(=O)c1cc2cccc(F)c2[nH]1` [Compound 201-331] are 92%, 87%, 41 min, 20.6 min and 103%.
